Measured values published in US20080090805A1, “CB-1 MODULATING COMPOUNDS AND THEIR USE” (ACADIA PHARMACEUTICALS INC., priority 2005, published 2008).

target: native CB1 receptors (Rattus norvegicus, UniProt P20272); experiment: CB1 receptor rat binding assay ([3H]SR141716A, rat brain membranes); settings: rat brain membranes, [3H]SR141716A
Sequence (P20272 whole entry): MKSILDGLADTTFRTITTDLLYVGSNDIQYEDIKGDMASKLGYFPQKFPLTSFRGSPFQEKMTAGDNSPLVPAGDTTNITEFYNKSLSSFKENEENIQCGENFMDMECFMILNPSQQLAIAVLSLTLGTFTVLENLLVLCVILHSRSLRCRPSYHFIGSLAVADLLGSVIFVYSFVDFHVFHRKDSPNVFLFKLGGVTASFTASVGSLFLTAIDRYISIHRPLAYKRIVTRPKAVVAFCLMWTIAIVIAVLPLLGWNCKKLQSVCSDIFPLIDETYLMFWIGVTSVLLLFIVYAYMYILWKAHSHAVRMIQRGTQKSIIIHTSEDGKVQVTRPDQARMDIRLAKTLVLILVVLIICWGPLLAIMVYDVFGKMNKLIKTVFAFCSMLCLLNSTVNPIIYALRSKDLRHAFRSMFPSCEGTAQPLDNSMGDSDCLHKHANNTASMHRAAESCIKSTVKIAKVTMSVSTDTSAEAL

Binding rat Inh % [%] | SMILES
88 | COc1ccc(C2=Nc3cc(C(=O)NN4[C@H](C)CCC[C@@H]4C)ccc3Sc3ccccc32)cc1 [drawing 1432]
103 | O=C(NCc1ccco1)c1ccc2c(c1)N=C(c1ccc(F)cc1)c1ccccc1S2 [drawing 1370]
71 | CCOCCNC(=O)c1ccc2c(c1)N=C(c1ccc(Cl)cc1)c1ccccc1S2 [drawing 1504]
66 | NS(=O)(=O)c1ccc(CNC(=O)c2ccc3c(c2)N=C(c2ccc(Cl)cc2)c2ccccc2S3)cc1 [drawing 1486]
97 | O=C(NCCC(F)(F)F)c1ccc2c(c1)N=C(c1ccc(Cl)cc1F)c1ccccc1S2 [drawing 1377]
86 | COCCNC(=O)c1ccc2c(c1)N=C(c1cccc(F)c1)c1ccccc1S2 [drawing 1468]
65 | N#Cc1ccc(C2=Nc3cc(C(=O)NNCc4ccccc4)ccc3Sc3ccccc32)cc1 [drawing 1538]

Continued, compound first:

SMILES | Binding rat Inh % [%]
O=C(NCCCC(F)(F)F)c1ccc2c(c1)N=C(c1ccsc1)c1ccccc1S2 [drawing 1233] | 97
Cc1ccsc1C1=Nc2cc(C(=O)NCc3ccco3)ccc2Sc2ccccc21 [drawing 1277] | 85
CCCCNC(=O)c1cc2c(cc1C)Sc1ccccc1C(c1ccc(Cl)cc1)=N2 [drawing 1243] | 119

same assay, conditions: rat brain membranes, [3H]SR141716A; read-out: Binding rat pKi (converted)

Ki [µM] | SMILES
0.0398 | CCCC1=Nc2cc(C(=O)NCc3ccccc3Cl)ccc2Sc2ccccc21 [drawing 1427]
0.0794 | CC(CNC(=O)c1ccc2c(c1)N=C(N1CCCCC1)c1cc(F)ccc1S2)c1ccccc1 (stereo not drawn) [drawing 1513]
0.0316 | O=C(NCc1ccccc1)c1ccc2c(c1)N=C(c1ccccc1F)c1ccccc1S2 [drawing 1365]
0.00794 | O=C(NCCc1ccc(Cl)cc1)c1ccc2c(c1)N=C(c1ccccc1)c1ccccc1S2 [drawing 1440]
0.0631 | CC(NC(=O)c1ccc2c(c1)N=C(c1ccc(Cl)cc1)c1ccccc1S2)c1ccccc1 (stereo not drawn) [drawing 1493]
0.00631 | CC(NC(=O)c1ccc2c(c1)N=C(C1CCCCC1)c1ccccc1S2)c1ccccc1 (stereo not drawn) [drawing 1431]
0.00501 | O=C(NCc1ccccc1)c1ccc2c(c1)N=C(c1ccc(Cl)cc1)c1ccccc1S2 [drawing 1368]
0.0501 | O=C(NCCc1ccccc1)c1ccc2c(c1)N=C(c1ccccc1F)c1ccccc1S2 [drawing 1444]
0.01 | O=C(NCc1cccc(Cl)c1)c1ccc2c(c1)N=C(c1ccccc1F)c1ccccc1S2 [drawing 1510]
0.0794 | O=C(NCc1ccc(Cl)cc1Cl)c1ccc2c(c1)N=C(N1CCCCC1)c1ccccc1S2 [drawing 1514]
0.00631 | COc1ccc(C2=Nc3cc(C(=O)NN4[C@H](C)CCC[C@@H]4C)ccc3Sc3ccccc32)cc1 [drawing 1432]
0.00501 | O=C(NCc1ccco1)c1ccc2c(c1)N=C(c1ccc(F)cc1)c1ccccc1S2 [drawing 1370]
0.0794 | CCOCCNC(=O)c1ccc2c(c1)N=C(c1ccc(Cl)cc1)c1ccccc1S2 [drawing 1504]
0.0316 | O=C(NCc1ccccc1Cl)c1ccc2c(c1)N=C(N1CCCCC1)c1ccccc1S2 [drawing 1366]
0.0631 | NS(=O)(=O)c1ccc(CNC(=O)c2ccc3c(c2)N=C(c2ccc(Cl)cc2)c2ccccc2S3)cc1 [drawing 1486]
0.00501 | O=C(NCCC(F)(F)F)c1ccc2c(c1)N=C(c1ccc(Cl)cc1F)c1ccccc1S2 [drawing 1377]
0.0501 | COCCNC(=O)c1ccc2c(c1)N=C(c1cccc(F)c1)c1ccccc1S2 [drawing 1468]
0.1 | N#Cc1ccc(C2=Nc3cc(C(=O)NNCc4ccccc4)ccc3Sc3ccccc32)cc1 [drawing 1538]
0.01 | CC(CNC(=O)c1ccc2c(c1)N=C(c1ccc(Cl)cc1)c1cc(F)ccc1S2)c1ccccc1 (stereo not drawn) [drawing 1524]

The remaining lines, values behind:

SMILES | Ki [µM]
O=C(NCc1cccc(Cl)c1)c1ccc2c(c1)N=C(c1cccc(Cl)c1)c1ccccc1S2 [drawing 1264] | 0.00158
O=C(NCCCc1ccccc1)c1ccc2c(c1)N=C(c1ccc(Cl)cc1)c1ccccc1S2 [drawing 1434] | 0.00631
CCCCNC(=O)c1ccc2c(c1)N=C(c1ccc(F)cc1)c1ccccc1S2 [drawing 1238] | 0.0158
O=C(NCc1ccccc1Br)c1ccc2c(c1)N=C(N1CCCCC1)c1ccccc1S2 [drawing 1275] | 0.02
O=C(NN1CCCCC1)c1ccc2c(c1)N=C(c1cccc(Cl)c1)c1ccccc1O2 | 0.0398
O=C(NCc1ccccc1Cl)c1ccc2c(c1)N=C(c1ccc(F)cc1)c1ccccc1S2 [drawing 1291] | 0.02
CCCCNC(=O)c1ccc2c(c1)N=C(c1ccccc1F)c1ccccc1S2 [drawing 1348] | 0.0251
CC(CNC(=O)c1ccc2c(c1)N=C(c1ccccc1F)c1ccccc1S2)c1ccccc1 (stereo not drawn) [drawing 1214] | 0.0158
CCN(CCNC(=O)c1ccc2c(c1)N=C(c1cccc(Cl)c1)c1ccccc1S2)c1ccccc1 [drawing 1298] | 0.00251
O=C(NCc1cccc(Cl)c1)c1ccc2c(c1)N=C(c1ccc(Cl)cc1)c1ccccc1S2 [drawing 1257] | 0.00126
CCN(CCNC(=O)c1ccc2c(c1)N=C(C1CCCCC1)c1ccccc1S2)c1ccccc1 [drawing 1296] | 0.00251
CCCCNC(=O)c1ccc2c(c1)N=C(c1ccccc1)c1ccccc1S2 [drawing 1300] | 0.02
O=C(NCCCC(F)(F)F)c1ccc2c(c1)N=C(c1ccsc1)c1ccccc1S2 [drawing 1233] | 0.000794
Cc1ccsc1C1=Nc2cc(C(=O)NCc3ccco3)ccc2Sc2ccccc21 [drawing 1277] | 0.02
O=C(NCc1ccc(F)cc1)c1ccc2c(c1)N=C(c1ccccc1F)c1ccccc1S2 [drawing 1299] | 0.02
CCCCNC(=O)c1cc2c(cc1C)Sc1ccccc1C(c1ccc(Cl)cc1)=N2 [drawing 1243] | 0.0158
